From patent US11331289B2, “Antimicrobial composition” (priority 2017, dated 2022)
Values after ≈ are worked out from the molar mass of the structure shown.

Test system: Malassezia pachydermatis
Experiment: MIC, microdilution broth method
Type: cell-based
Description: Six clinical isolates from dog skin (n=5) and cats (n=1) which had been sent to EnvA (mycology laboratory of BioPôle Alfort) for mycological culture. The isolates, collected in March 2016, were identified as belonging to the species Malassezia pachydermatis. They were maintained by regular transplanting on medium of Sabouraud. Isolates are subcultured 2 to 3 days prior to testing sensitivity.
A stock solution of Oxyclozanide at 1600 μg/mL is prepared in DMSO. The stock solution is then diluted in DMSO to obtain a concentration range of 3.125 μg/ml to 800 μg/ml. A 1/50 dilution of this range and of the stock solution is then carried out in ultrapure water so as to obtain a concentration range of 0.0625 μg/ml to 32 μg/ml and containing 2% of DMSO. 50 μl of these solutions are deposited in wells of a microplate and then 50 μl of inoculum calibrated at 10^6 CFU/ml in Sabouraud/Tween 40 (2%) are added. A range of tested concentrations ranges from 0.0312 μg/mL to 16 μg/mL. The final concentration of DMSO in contact with the inoculum is 1%. The same dilution and seeding protocol was followed with a stock solution of amphotericin B at 1600 μg/ml. A “placebo” (or yeast growth control) column is systematically included in the plates. The plates are incubated at 37 ° C. The reading is done at 24 and 48 h. Several trials were conducted and protocol adjustments were required. In particular, the concentration of the inoculum had to be reduced for antifungal activity to be observed.

C[C@@H]1[C@H](O)[C@@H](C)/C=C/C=C/C=C/C=C/C=C/C=C/C=C/[C@H](O[C@@H]2O[C@H](C)[C@@H](O)[C@H](N)[C@@H]2O)C[C@@H]2O[C@](O)(C[C@@H](O)C[C@@H](O)[C@H](O)CC[C@@H](O)C[C@@H](O)CC(=O)O[C@H]1C)C[C@H](O)[C@H]2C(=O)O [Amphoterine B, amphotericin B] showed an MIC (Isolate 1, Assay 1, 10^6 CFU/ml) of 2 µg/mL (≈ 2.16 µM), an MIC (Isolate 1, Assay 2, 10^6 CFU/ml) of 4 µg/mL (≈ 4.33 µM) and an MIC (Isolate 2, Assay 1, 10^6 CFU/ml) of 2 µg/mL (≈ 2.16 µM). For the same compound, the MIC (Isolate 2, Assay 2, 10^6 CFU/ml) was 2 µg/mL (≈ 2.16 µM), the MIC (Isolate 3, Assay 1, 10^6 CFU/ml) was 4 µg/mL (≈ 4.33 µM) and the MIC (Isolate 3, Assay 2, 10^6 CFU/ml) was 8 µg/mL (≈ 8.66 µM). It also gave an MIC (Isolate 4, Assay 1, 10^6 CFU/ml) of 4 µg/mL (≈ 4.33 µM), an MIC (Isolate 4, Assay 2, 10^6 CFU/ml) of 4 µg/mL (≈ 4.33 µM) and an MIC (Isolate 5, Assay 1, 10^6 CFU/ml) of 4 µg/mL (≈ 4.33 µM). It also gave an MIC (Isolate 5, Assay 2, 10^6 CFU/ml) of 4 µg/mL (≈ 4.33 µM), an MIC (Isolate 6, Assay 1, 10^6 CFU/ml) of 4 µg/mL (≈ 4.33 µM) and an MIC (Isolate 6, Assay 2, 10^6 CFU/ml) of 8 µg/mL (≈ 8.66 µM).
